Laboratory results: PMC12680189, “Aotaphenazine, a rare hydrophenazine, targets topoisomerase II with anticancer efficacy: In silico to in vitro evidence” (PLOS One, 2025)

Biological target: Topoisomerase II (Topo II)
Assay: ELISA-based Topo II inhibition assay kit (Abcam), recombinant human enzyme, colorimetric
Format: biochemical

- IC50: 45 nM
Compound: O=c1oc(=O)c2c(ccc3nc4ccccc4[nH]c32)c1-c1ccccc1 [aotaphenazine]
